Values quoted from earlier work in US11053255B2, “Synthesis of mahanine and related compounds” (Georgetown University, priority 2015, dated 2021).

Assays:
[1] = tested on: androgen-independent, PC3 prostate cancer cells; conditions: in vitro
[2] = tested on: androgen-responsive, LNCaP prostate cancer cells; conditions: in vitro
cyclin D1 = conditions: prostate cancer cells
RASSF1A = conditions: human prostate cancer cells, dose-dependent

In the case of `CC(C)=CCC[C@]1(C)C=Cc2c(c(C)cc3c2[nH]c2cc(O)ccc23)O1` [mahanine, (R)-3,5-dimethyl-3-(4-methylpent-3-en-1-yl)-3,11-dihydropyrano[3,2-a]carbazol-9-ol], the growth inhibition [1] is listed as “inhibits growth”, the induction of apoptosis [1] is listed as “induces apoptosis” and the growth inhibition [2] is listed as “inhibits growth”. For the same compound, the induction of apoptosis [2] was “induces apoptosis”, the “cyclin D1 transcriptional activity” value (cyclin D1) was “represses cyclin D1 transcriptional activity” and the “expression of RASSF1A” value (RASSF1A) was “induces the expression of RASSF1A”.
